Results as given in ChEMBL document CHEMBL4138123, “Design, synthesis and biological evaluation of novel pyrazolochalcones as potential modulators of PI3K/Akt/mTOR pathway and inducers of apoptosis in breast cancer cells” (Eur J Med Chem, 2017).

Key:
[1] = tested on: MCF7; test: Cytotoxicity against human MCF7 cells assessed as growth inhibition after 48 hrs by MTT assay; assay type: functional, cell-based; conditions: MCF7, 48 h
[2] = tested on: MDA-MB-231; test: Cytotoxicity against human MDA-MB-231 cells assessed as growth inhibition after 48 hrs by MTT assay; assay type: functional, cell-based; conditions: MDA-MB-231, 48 h
[3] = tested on: MCF7; test: Induction of apoptosis in human MCF7 cells assessed as viable cells at 2 uM after 24 hrs by Annexin-V FITC/propidium iodide staining-based FACS analysis (reference value: 93.9%); assay type: functional; conditions: MCF7, 24 h, read-out: Activity
[4] = tested on: MCF7; test: Induction of apoptosis in human MCF7 cells assessed as necrotic cells at 2 uM after 24 hrs by Annexin-V FITC/propidium iodide staining-based FACS analysis (reference value: 0.2%); assay type: functional
[5] = tested on: MCF7; test: Induction of intrinsic apoptosis in human MCF7 cells assessed as effect on mitochondrial membrane depolarization at 2 uM after 5 hrs by DiOC6 staining-based FACS analysis relative to control; assay type: functional
[6] = tested on: MCF7; test: Induction of intrinsic apoptosis in human MCF7 cells assessed as effect on mitochondrial membrane depolarization at 2 uM after 18 hrs by DiOC6 staining-based FACS analysis (reference value: 2%); assay type: functional
[7] = tested on: MCF7; test: Induction of intrinsic apoptosis in human MCF7 cells assessed as effect on mitochondrial membrane depolarization by measuring mean fluorescence intensity at 2 uM after 18 hrs by DiOC6 staining-based FACS analysis (reference value: 463); assay type: functional
[8] = tested on: MCF7; test: Cell cycle arrest in human MCF7 cells assessed as accumulation at G0/G1 phase at 2 uM after 48 hrs by flow cytometric analysis (reference value: 34.2%); assay type: functional
[9] = tested on: MCF7; test: Induction of apoptosis in human MCF7 cells assessed as early apoptotic cells at 2 uM after 24 hrs by Annexin-V FITC/propidium iodide staining-based FACS analysis (reference value: 0.5%); assay type: functional
[10] = tested on: MCF7; test: Cell cycle arrest in human MCF7 cells assessed as accumulation at G2/M phase at 2 uM after 48 hrs by flow cytometric analysis (reference value: 8.1%); assay type: functional
[11] = tested on: MCF7; test: Cell cycle arrest in human MCF7 cells assessed as accumulation at S phase at 2 uM after 24 hrs by flow cytometric analysis (reference value: 79.1%); assay type: functional
[12] = tested on: MCF7; test: Cell cycle arrest in human MCF7 cells assessed as accumulation at G0/G1 phase at 2 uM after 24 hrs by flow cytometric analysis (reference value: 18.4%); assay type: functional
[13] = tested on: MCF7; test: Cell cycle arrest in human MCF7 cells assessed as accumulation at S phase at 2 uM after 48 hrs by flow cytometric analysis (reference value: 57.7%); assay type: functional
[14] = tested on: MCF7; test: Induction of apoptosis in human MCF7 cells assessed as late apoptotic cells at 2 uM after 24 hrs by Annexin-V FITC/propidium iodide staining-based FACS analysis (reference value: 5.4%); assay type: functional
[15] = tested on: MCF7; test: Cell cycle arrest in human MCF7 cells assessed as accumulation at G2/M phase at 2 uM after 24 hrs by flow cytometric analysis (reference value: 2.35%); assay type: functional

SMILES | IC50 [1] [µM] | IC50 [2] [µM] | other results
O=C1/C(=C/c2cc(-c3ccc4c(c3)OCO4)n[nH]2)CCc2ccccc21 | 9.9 | 12.6 | –
COc1ccc(-c2cc(/C=C/C(=O)c3cc(OC)c(OC)c(OC)c3)[nH]n2)cc1 | 2 | 2.4 | –
O=C(/C=C/c1cc(-c2ccc3c(c2)OCO3)n[nH]1)c1ccc(F)c(F)c1 | 8.1 | 12.1 | –
COc1cc(-c2cc(/C=C3\CCc4ccccc4C3=O)[nH]n2)cc(OC)c1OC | 8.5 | 9.5 | –
O=C1/C(=C/c2cc(-c3ccc4c(c3)OCO4)n[nH]2)Cc2ccccc21 | 5.1 | 8.3 | –
O=C(/C=C/c1cc(-c2ccc3c(c2)OCO3)n[nH]1)c1ccccc1 | 8 | 12.1 | –
COc1ccc(C(=O)/C=C/c2cc(-c3ccc4c(c3)OCO4)n[nH]2)cc1 | 3.5 | 3.5 | –
COc1ccc2c(c1)C/C(=C\c1cc(-c3ccc4c(c3)OCO4)n[nH]1)C2=O | 2.7 | 4.1 | –
COc1cc(-c2cc(/C=C3\CCCCC3=O)[nH]n2)cc(OC)c1OC | 10.1 | 17.8 | –
COc1cc(-c2cc(/C=C3\Cc4ccccc4C3=O)[nH]n2)cc(OC)c1OC | 4.8 | 7.1 | –
COc1ccc(C(=O)/C=C/c2cc(-c3ccc4c(c3)OCO4)n[nH]2)cc1F | 13.5 | 15.9 | –
COc1ccc(/C=C\c2cc(OC)c(OC)c(OC)c2)cc1O [COMBRETASTATIN A4] | 0.12 | 0.17 | viability at 2 µM [3]: 75.8%; Activity [4]: 1.3%; Activity [5]: 7.6%; Activity [6]: 46%; Flu intensity [7]: 558; Activity [8]: 2.4%; Activity [9]: 6.1%; Activity [10]: 85.5%; Activity [11]: 46.3%; Activity [12]: 0%; Activity [13]: 12%; Activity [14]: 16.8%; Activity [15]: 56.3%
COc1cc(-c2cc(/C=C/C(=O)c3ccc(Cl)cc3)[nH]n2)cc(OC)c1OC | 11.6 | 26 | –
COc1cc(-c2cc(/C=C/C(C)=O)[nH]n2)cc(OC)c1OC | 20.1 | 27.3 | –
O=C(/C=C/c1cc(-c2ccc3c(c2)OCO3)n[nH]1)c1ccc2c(c1)OCO2 | 2.1 | 3.3 | –
O=C1CCCC/C1=C\c1cc(-c2ccc3c(c2)OCO3)n[nH]1 | 15.1 | 11.8 | –
COc1ccc2c(c1)C/C(=C\c1cc(-c3cc(OC)c(OC)c(OC)c3)n[nH]1)C2=O | 2.1 | 2 | –
CC(=O)/C=C/c1cc(-c2ccc3c(c2)OCO3)n[nH]1 | 21.6 | 20.2 | –
COc1cc2c(cc1OC)C(=O)/C(=C/c1cc(-c3cc(OC)c(OC)c(OC)c3)n[nH]1)C2 | 2 | 2.5 | –
COc1ccc(C(=O)/C=C/c2cc(-c3cc(OC)c(OC)c(OC)c3)n[nH]2)cc1F | 3 | 2.7 | –
Nc1ccc(C(=O)/C=C/c2cc(-c3ccc4c(c3)OCO4)n[nH]2)cc1 | 3.5 | 5.1 | –
O=C(/C=C/c1cc(-c2ccc3c(c2)OCO3)n[nH]1)c1ccc(Cl)cc1 | 15 | 17.5 | –
O=C(/C=C/c1cc(-c2ccc3c(c2)OCO3)n[nH]1)c1ccc(Cl)c(Cl)c1 | 10.8 | 14.8 | –
COc1cc(-c2cc(/C=C/C(=O)c3ccccc3)[nH]n2)cc(OC)c1OC | 2.1 | 2.3 | –
COc1ccc(-c2cc(/C=C/C(=O)c3ccc4c(c3)OCO4)[nH]n2)cc1 | 2.5 | 3.3 | –
COc1cccc2c1C(=O)c1c(O)c3c(c(O)c1C2=O)C[C@@](O)(C(=O)CO)C[C@@H]3O[C@H]1C[C@H](N)[C@H](O)[C@H](C)O1.Cl [DOXORUBICIN HYDROCHLORIDE] | – | – | Activity [8]: 59.1%; Activity [10]: 0.8%; Activity [11]: 16.2%; Activity [12]: 82.5%; Activity [13]: 40.1%; Activity [15]: 1.2%
